These are literature values, as cited in article PMC3674230 (Chemical communications (Cambridge, England), 2012).

In the data set the test system is Zn(II)-dependent matrix metalloproteinases (MMP). The conditions noted are these: direct metal coordination.

`CC(=O)NO` [acetohydroxamic acid]: the IC50 was ~25 mM.

What is called IC50 is the concentration that gives 50% inhibition.
